Broadly, the inhibition is the share of the control response that was lost under treatment. As usually defined, the IC50 is the concentration at which inhibition is half-maximal. Higher therefore signals weaker potency in that assay.

The structures appear in SMILES notation. Active and inactive are the calls of the source. The rule behind the calls is not given here.

Experiment [1] is filed under the species Sus scrofa. The experiment is described as follows: Inhibition of porcine MAP-rich tubulin polymerization at 20 uM measured every 30 secs for 30 mins.
For experiment [2], the species on record is Homo sapiens. The settings on record: 10 uM.
Description: Inhibition of P-gp in human MCF7/ADR cells assessed as increase in intracellular Rh123 accumulation at 10 uM after 2 hrs by flow cytometry
Experiment [3] relates to MCF7. Nature of the experiment: Growth inhibition of human MCF7 cells after 48 hrs by MTT assay. The class given is functional, cell-based. The conditions noted are these: MCF7, 48 h. A general note: Tetrazolium dyes change colour on reduction, which living cells bring about.
Experiment [4] deals with NCI/ADR-RES. Nature of the experiment: Growth inhibition of human MCF7/ADR cells after 48 hrs by MTT assay. It is filed as functional, cell-based.
Experiment [5] in a line: Resistance factor, ratio of IC50 for human MCF7/ADR cells to IC50 for human MCF7 cells. The class given is functional.
A short description of experiment [6]: Growth inhibition of human MDA-MB-231/ADR cells after 48 hrs by MTT assay. The conditions noted are these: MDA-MB-231, 48 h. The class given is functional.
The nature of experiment [7]: Resistance factor, ratio of IC50 for human MDA-MB-231/ADR cells to IC50 for human MDA-MB-231 cells. It is filed as functional.
The test system of another experiment is MDA-MB-231. The experiment is described as follows: Growth inhibition of human MDA-MB-231 cells after 48 hrs by MTT assay. The class given is functional, cell-based. The conditions noted are these: MDA-MB-231, 48 h.
The test system of experiment [8] is MCF7. The experiment is described as follows: Induction of apoptosis in human MCF7 cells at 6 uM after 24 hrs by Annexin V-FITC/PI double staining based flow cytometry relative to control. It is filed as functional. On the technique in general: In flow cytometry, cells or beads pass a laser one at a time.
For experiment [9], the system named is MCF7. Nature of the experiment: Induction of apoptosis in human MCF7 cells at 12 uM after 24 hrs by Annexin V-FITC/PI double staining based flow cytometry relative to control. It is filed as functional.
Experiment [10] has as its system MCF7. The experiment is described as follows: Induction of apoptosis in human MCF7 cells at 24 uM after 24 hrs by Annexin V-FITC/PI double staining based flow cytometry relative to control. The class given is functional.
Experiment [11] concerns NCI/ADR-RES. Nature of the experiment: Induction of apoptosis in human MCF7/ADR cells at 6 uM after 24 hrs by Annexin V-FITC/PI double staining based flow cytometry relative to control. It is filed as functional.
Experiment [12] concerns NCI/ADR-RES. The experiment is described as follows: Induction of apoptosis in human MCF7/ADR cells at 12 uM after 24 hrs by Annexin V-FITC/PI double staining based flow cytometry relative to control. It is filed as functional.
In experiment [13] the test system is NCI/ADR-RES. The experiment is described as follows: Induction of apoptosis in human MCF7/ADR cells at 24 uM after 24 hrs by Annexin V-FITC/PI double staining based flow cytometry relative to control. It is filed as functional.
Experiment [14] deals with NCI/ADR-RES. Nature of the experiment: Downregulation of P-gp protein expression level in human MCF7/ADR cells assessed as P-gp protein level up to 24 uM by Western blot analysis (reference value: 0.67). It is filed as functional. (In general: In western blotting, separated proteins are transferred to a membrane and probed.)
For experiment [15], the system named is NCI/ADR-RES. Nature of the experiment: Downregulation of P-gp expression level in human MCF7/ADR cells assessed as P-gp mRNA level up to 24 uM by qRT-PCR analysis (reference value: 17.5). The class given is functional.
The test system of experiment [16] is NCI/ADR-RES. The experiment is described as follows: Downregulation of P-gp mRNA level in human MCF7/ADR cells by qRT-PCR analysis. It is filed as functional, cell-based.
In experiment [17] the test system is MCF7. The experiment is described as follows: Downregulation of P-gp protein expression level in human MCF7 cells assessed as P-gp protein level up to 24 uM by Western blot analysis. It is filed as functional.
For experiment [18], the species on record is Homo sapiens. The experiment is described as follows: Inhibition of P-gp in human MCF7/ADR cells assessed as increase in intracellular Rh123 accumulation at 24 uM after 2 hrs by flow cytometry. It is filed as cell-based.
The next experiment addresses Tubulin. The experiment is described as follows: Inhibition of tubulin (unknown origin) polymerization preincubated for 15 mins followed by GTP addition measured for 20 mins by turbidimetric analysis. It is filed as protein-complex assay, Homo sapiens.
The target in experiment [19] is T1, Tubulin (Homo sapiens) (UniProt P68371+Q9H4B7+P0DPH7+P68366+Q13509+Q71U36+P04350+Q3ZCM7+P07437+P68363+Q9BQE3+Q6PEY2+Q13885+Q9BVA1+Q9BUF5). Nature of the experiment: Displacement of [3H]colchicine from tubulin (unknown origin) at 1 uM after 10 mins relative to control. It is filed as protein-complex assay.
Experiment [20] has as its target T1, Tubulin (Homo sapiens). The experiment is described as follows: Displacement of [3H]colchicine from tubulin (unknown origin) at 5 uM after 10 mins relative to control. The class given is protein-complex assay.
For experiment [21], the species on record is Sus scrofa. Nature of the experiment: Inhibition of porcine MAP-rich tubulin polymerization measured every 30 secs for 30 mins.

With `COc1cc2c(c(OC)c1OC)-c1ccc(OC)c(=O)cc1[C@@H](NC(C)=O)CC2`, the inhibition entry in the experiment filed under Sus scrofa [1] is “Active”.

Consider `COc1ccc(CCN(C)CCCC(C#N)(c2ccc(OC)c(OC)c2)C(C)C)cc1OC` (stereo not drawn), for which the inhibition entry in the experiment listed under Homo sapiens [2] was “Active”.

As for `COc1cccc2c1C(=O)c1c(O)c3c(c(O)c1C2=O)C[C@@](O)(C(=O)CO)C[C@@H]3O[C@H]1C[C@H](N)[C@H](O)[C@H](C)O1.Cl` [DOXORUBICIN HYDROCHLORIDE], the IC50 in the experiment with MCF7 [3] was determined as 1.72 µM; with NCI/ADR-RES [4], 50.7 µM; in experiment [6] it was 49.8 µM. Moreover, the results for the “Ratio IC50” value in [5] and in experiment [7] were 29.5 and 22.72, respectively.

Turning to `COc1cc2nc3occc3c(OC)c2cc1OC` [KOKUSAGININE], the IC50 with MCF7 [3] worked out at 7.23 µM; in the experiment on NCI/ADR-RES [4] it was 4.62 µM; in the experiment on MDA-MB-231, 9.01 µM; in [6], 10.2 µM; against Tubulin, 0.82 µM. The “Ratio IC50” value in experiment [5] is 0.64; in experiment [7], 1.13. The Activity with MCF7 [8] is on record as 12.08%; with MCF7 [9] it was 21.63%; in the experiment with MCF7 [10] it was 39.52%; in the experiment on NCI/ADR-RES [11], 28.16%; in the experiment with NCI/ADR-RES [12] it was 45.35%; with NCI/ADR-RES [13], 63.29%. Besides, the Activity with NCI/ADR-RES [14] is 0.19; in the experiment on NCI/ADR-RES [15], 6.4; with NCI/ADR-RES [16] it was “Dose-dependent effect”; with MCF7 [17], 0.02 - 0.09. Also, the inhibition result in the experiment listed under Homo sapiens [18] is “Active”. The inhibition at Tubulin (Homo sapiens) [19] was 92%; on Tubulin (Homo sapiens) [20] it was 98%; in the experiment listed under Sus scrofa [21] it was “Dose-dependent effect”.

These data come from ChEMBL document CHEMBL4118272, “The inhibitory effect of kokusaginine on the growth of human breast cancer cells and MDR-resistant cells is mediated by the inhibition of tubulin assembly” (Bioorg Med Chem Lett, 2018).
